# Tests used:
# Type in all cases: biochemical
# [1] = target: T1, MMP-2 (Homo sapiens, UniProt P08253); assay: Automated MMP Profiling Assay, MMP-2 fluorogenic; settings: for IC50: 96-well automated, P218, read-out: MMP-2 Fluorogenic IC50 (profiling)
# T1 sequence (P08253 110-660): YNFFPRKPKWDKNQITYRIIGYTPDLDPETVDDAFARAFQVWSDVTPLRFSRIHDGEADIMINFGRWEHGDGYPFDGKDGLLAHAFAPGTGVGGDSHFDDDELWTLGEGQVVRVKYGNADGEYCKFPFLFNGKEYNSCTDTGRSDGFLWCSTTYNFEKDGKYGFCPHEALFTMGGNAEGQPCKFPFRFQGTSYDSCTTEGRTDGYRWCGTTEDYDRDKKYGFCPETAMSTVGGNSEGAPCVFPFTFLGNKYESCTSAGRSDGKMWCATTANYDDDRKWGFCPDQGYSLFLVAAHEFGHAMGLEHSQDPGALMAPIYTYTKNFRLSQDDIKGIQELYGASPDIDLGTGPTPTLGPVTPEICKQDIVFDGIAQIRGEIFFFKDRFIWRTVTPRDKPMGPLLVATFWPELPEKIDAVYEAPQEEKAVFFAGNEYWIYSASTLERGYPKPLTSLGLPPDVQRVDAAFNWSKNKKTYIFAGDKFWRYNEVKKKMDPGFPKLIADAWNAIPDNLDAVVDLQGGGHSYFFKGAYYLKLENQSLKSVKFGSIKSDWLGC
# [2] = target: T2, MMP-9 (Homo sapiens, UniProt P14780); assay: Automated MMP Profiling Assay, MMP-9 fluorogenic; settings: for IC50: 96-well automated, P218
# T2 construct: from tissue; host or cells: human polymorphonuclear leukocytes (PMN) from whole blood (New York Blood Center), PMA-stimulated supernatant
# [3] = target: T3, MMP-3 (Homo sapiens, UniProt P08254); assay: Automated MMP Profiling Assay, MMP-3 fluorogenic; settings: for IC50: 96-well automated, P218
# T3 construct: Truncated Prostromelysin-257 was expressed in a soluble form in E.coli; made in house; host or cells: E. coli
# Excerpt: This assay with each invention compound was run with the three enzymes MMP-3, MMP-9 and MMP-2 in parallel as adapted for a 96-well microtitre plate using a Hamilton A® workstation.
# T2 sequence (P14780 107-707 limits assumed): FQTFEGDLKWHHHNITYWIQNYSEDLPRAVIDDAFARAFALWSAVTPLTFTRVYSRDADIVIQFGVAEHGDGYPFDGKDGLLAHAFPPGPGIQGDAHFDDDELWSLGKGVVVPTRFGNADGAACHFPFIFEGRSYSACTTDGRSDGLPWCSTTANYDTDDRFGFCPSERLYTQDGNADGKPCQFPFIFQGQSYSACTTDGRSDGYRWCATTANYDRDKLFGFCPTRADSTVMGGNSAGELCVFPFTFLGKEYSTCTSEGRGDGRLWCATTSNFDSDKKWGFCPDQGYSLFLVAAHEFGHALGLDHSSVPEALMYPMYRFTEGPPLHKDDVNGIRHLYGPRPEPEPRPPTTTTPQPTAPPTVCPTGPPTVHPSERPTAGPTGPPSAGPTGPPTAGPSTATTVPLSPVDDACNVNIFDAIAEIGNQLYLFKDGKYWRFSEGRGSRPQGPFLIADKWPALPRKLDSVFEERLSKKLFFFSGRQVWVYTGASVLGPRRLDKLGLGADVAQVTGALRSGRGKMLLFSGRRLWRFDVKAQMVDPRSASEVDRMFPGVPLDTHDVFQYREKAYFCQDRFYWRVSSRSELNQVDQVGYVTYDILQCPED
# T3 sequence (P08254 100-274 limits assumed): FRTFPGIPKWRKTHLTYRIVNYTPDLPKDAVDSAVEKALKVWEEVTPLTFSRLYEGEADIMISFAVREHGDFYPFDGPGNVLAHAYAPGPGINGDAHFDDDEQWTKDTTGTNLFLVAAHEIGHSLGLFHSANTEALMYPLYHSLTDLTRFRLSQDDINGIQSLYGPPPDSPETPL
Compound,IC50 [1] [nM],inhibition at 5 µM [2] [%],IC50 [3] [nM],inhibition at 5 µM ([1]; at 5 μM) [%],inhibition at 5 µM ([3]; at 5 μM) [%],IC50 [2] [nM]
"O=C(CC(CCCc1ccccc1)C(=O)O)c1ccc(-c2ccc(OCc3ccc(F)cc3)cc2)cc1 (stereo not drawn) [Example 107, [1,1'-Biphenyl]-4-butanoic acid, 4'-[(4-fluorophenyl)methoxy]-γ-oxo-α-(3-phenylpropyl)-]",16,34,32,–,–,–
"CCCCCCCCCCOc1ccc(-c2ccc(C(=O)CC(CCCc3ccccc3)C(=O)O)cc2)cc1 (stereo not drawn) [Example 108, [1,1'-Biphenyl]-4-butanoic acid, 4'-(decyloxy)γ-oxo-α-(3-phenylpropyl)-]",–,4,–,16,8,–
"O=C(CC(CCCc1ccccc1)C(=O)O)c1ccc(-c2ccc(OCc3cccnc3)cc2)cc1 (stereo not drawn) [Example 109, [1,1'-Biphenyl]-4-butanoic acid, γ-oxo-α-(3-phenylpropyl)-4'-(3-pyridinylmethoxy)-]",6.6,–,28,–,–,1290
"O=C(CC(CCCc1ccccc1)C(=O)O)c1ccc(-c2ccc(OCc3ccccn3)cc2)cc1 (stereo not drawn) [Example 110, [1,1'-Biphenyl]-4-butanoic acid, γ-oxo-α-(3-phenylpropyl)-4'-(2-pyridinylmethoxy)-]",38,26,37,–,–,–
"O=C(CC(CCCc1ccccc1)C(=O)O)c1ccc(-c2ccc(OCc3ccncc3)cc2)cc1 (stereo not drawn) [Example 111, [1,1'-Biphenyl]-4-butanoic acid, γ-oxo-α-(3-phenylpropyl)-4'-(4-pyridinylmethoxy)-]",3.9,–,18,–,–,4730
"NC(=O)c1ccc(COc2ccc(-c3ccc(C(=O)CC(CCCc4ccccc4)C(=O)O)cc3)cc2)cc1 (stereo not drawn) [Example 112, [1,1'-Biphenyl]-4-butanoic acid, 4'-[[4-(aminocarbonyl)phenyl]methoxy]-γ-oxo-α-(3-phenylpropyl)-]",11,–,30,–,–,884
O=C(O)c1ccc(COc2ccc(-c3ccc(C(=O)CC(CCCc4ccccc4)C(=O)O)cc3)cc2)cc1 (stereo not drawn) [Example 113],44,–,28,–,–,1330
"O=C(CC(CCc1cccc(I)c1)C(=O)O)c1ccc(-c2ccc(Cl)cc2)cc1 (stereo not drawn) [Example 127, [1,1'-Biphenyl]-4-butanoic acid, 4'-chloro-α[2-(3-iodophenyl)ethyl]-γ-oxo-]",40,–,605,–,–,1220
"O=C(CC(CCc1ccc(I)cc1)C(=O)O)c1ccc(-c2ccc(Cl)cc2)cc1 (stereo not drawn) [Example 128, [1,1'-Biphenyl]-4-butanoic acid, 4'-chloro-α-[2-(4-iodophenyl)ethyl]-γ-oxo-]",145,–,561,–,–,715
"COc1cc(CCC(CC(=O)c2ccc(-c3ccc(Cl)cc3)cc2)C(=O)O)cc(OC)c1 (stereo not drawn) [Example 129, [1,1'-Biphenyl]-4-butanoic acid, 4'-chloro-α-[2-(3,5-dimethoxyphenyl)ethyl]-γ-oxo-]",89,–,237,–,–,771
"O=C(CC(CCCc1ccccc1)C(=O)O)c1ccc(-c2ccc(Br)cc2)cc1 (stereo not drawn) [Example 134, [1,1'-Biphenyl]-4-butanoic acid, 4'-bromo-γ-oxo-α-(3-phenylpropyl)-]",63,–,304,–,–,358
"O=C(Nc1ccc(-c2ccc(C(=O)CC(CCc3ccccc3)C(=O)O)cc2)cc1)OCc1ccccc1 (stereo not drawn) [Example 137, [1,1'-Biphenyl]-4-butanoic acid, γ-oxo-α-(2-phenylethyl)-4'-[[(phenylmethoxy)carbonyl]amino]-]",548,–,> 1250,–,–,1400
"CC(C)(C)OC(=O)Nc1ccc(-c2ccc(C(=O)CC(CCc3ccccc3)C(=O)O)cc2)cc1 (stereo not drawn) [Example 138, [1,1'-Biphenyl]-4-butanoic acid, 4'-[[(1,1-dimethylethoxy)carbonyl]amino]-γ-oxo-α-(2-phenylethyl)-]",665,0,905,–,–,–
"CC(=O)Nc1ccc(-c2ccc(C(=O)CC(CCc3ccccc3)C(=O)O)cc2)cc1 (stereo not drawn) [Example 139, [1,1'-Biphenyl]-4-butanoic acid, 4'-(acetylamino)-γ-oxo-α-(2-phenylethyl)-]",323,–,5000,–,–,5000
"CCCCC(=O)Nc1ccc(-c2ccc(C(=O)CC(CCc3ccccc3)C(=O)O)cc2)cc1 (stereo not drawn) [Example 140, [1,1'-Biphenyl]-4-butanoic acid, γ-oxo-4'-[(1-oxopentyl)amino]-α-(2-phenylethyl)-]",242,–,1030,–,–,> 1250
"CC(C)(C)CC(=O)Nc1ccc(-c2ccc(C(=O)CC(CCc3ccccc3)C(=O)O)cc2)cc1 (stereo not drawn) [Example 141, [1,1'-Biphenyl]-4-butanoic acid, 4'-[(3,3-dimethyl-1-oxobutyl)amino]-γ-oxo-α-(2-phenylethyl)-]",1170,0,< 5000,–,–,–
"O=C(CC(CCc1ccccc1C(=O)O)C(=O)O)c1ccc(-c2ccc(Cl)cc2)cc1 (stereo not drawn) [Example 143, [1,1'-Biphenyl]-4-butanoic acid, α-[2-(2-carboxyphenyl)ethyl]-4'-chloro-γ-oxo-]",111,–,309,–,–,1400
"CCN(CC)C(=O)c1cccc(CCC(CC(=O)c2ccc(-c3ccc(Cl)cc3)cc2)C(=O)O)c1 (stereo not drawn) [Example 144, 4-[4-(4-chlorophenyl)phenyl]-4-oxo-2-[2-(3-N,N-diethylcarbamoyl)phenyl]butanoic acid]",3.4,–,15,–,–,29
CCN(CC)C(=O)c1cccc(CC[C@H](CC(=O)c2ccc(-c3ccc(Cl)cc3)cc2)C(=O)O)c1 [Example 146],538,–,2400,–,–,2710
"CCCCNC(=O)c1ccccc1CCC(CC(=O)c1ccc(-c2ccc(Cl)cc2)cc1)C(=O)O (stereo not drawn) [Example 147, [1,1'-Biphenyl]-4-butanoic acid, α-[2-[2-[(butylamino)carbonyl]phenyl]ethyl]-4'-chloro-γ-oxo-]",73,–,266,–,–,676
"O=C(O)c1cccc(CCC(CC(=O)c2ccc(-c3ccc(Cl)cc3)cc2)C(=O)O)c1 (stereo not drawn) [Example 148, [1,1'-Biphenyl]-4-butanoic acid, α-[2-(3-carboxyphenyl)ethyl]-4'-chloro-γ-oxo-]",54,–,90,–,–,454
"CCCCNC(=O)c1cccc(CCC(CC(=O)c2ccc(-c3ccc(Cl)cc3)cc2)C(=O)O)c1 (stereo not drawn) [Example 150, [1,1'-Biphenyl]-4-butanoic acid, α-[2-[3-[(butylamino)carbonyl]phenyl]ethyl]-4'-chloro-γ-oxo-]",201,–,371,–,–,957
"CCN(CC)C(=O)c1ccc(CCC(CC(=O)c2ccc(-c3ccc(Cl)cc3)cc2)C(=O)O)cc1 (stereo not drawn) [Example 151, [1,1'-Biphenyl]-4-butanoic acid, 4'-chloro-α-[2-[4-[(diethylamino)carbonyl]phenyl]ethyl]-γ-oxo-]",70,–,371,–,–,607
"CCCCNC(=O)c1ccc(CCC(CC(=O)c2ccc(-c3ccc(Cl)cc3)cc2)C(=O)O)cc1 (stereo not drawn) [Example 152, [1,1'-Biphenyl]-4-butanoic acid, α-[2-[4-[(butylamion)carbonyl]phenyl]ethyl]-4'-chloro-γ-oxo-]",210,–,367,–,–,597
"O=C(O)c1ccc(CCC(CC(=O)c2ccc(-c3ccc(Cl)cc3)cc2)C(=O)O)cc1 (stereo not drawn) [Example 153, [1,1'-Biphenyl]-4-butanoic acid, α-[2-(4-carboxyphenyl)ethyl]-4'-chloro-γ-oxo-]",127,–,594,–,–,1010
"COc1ccc(-c2ccc(C(=O)CC(CCc3ccccc3)C(=O)O)cc2)cc1 (stereo not drawn) [Example 154, [1,1'-Biphenyl]-4-butanoic acid, 4'-methoxy-γ-oxo-α-(2-phenylethyl)-]",37,–,470,–,–,875
"O=C(CC(CCc1ccccc1)C(=O)O)c1ccc(-c2ccc(O)cc2)cc1 (stereo not drawn) [Example 155, [1,1'-Biphenyl]-4-butanoic acid, 4'-hydroxy-γ-oxo-α-(2-phenylethyl)-]",50,–,777,–,–,> 1250
"CCOc1ccc(-c2ccc(C(=O)CC(CCc3ccccc3)C(=O)O)cc2)cc1 (stereo not drawn) [Example 156, [1,1'-Biphenyl]-4-butanoic acid, 4'-ethoxy-γ-oxo-α-(2-phenylethyl)-]",21,–,126,–,–,145
"CCCOc1ccc(-c2ccc(C(=O)CC(CCc3ccccc3)C(=O)O)cc2)cc1 (stereo not drawn) [Example 157, [1,1'-Biphenyl]-4-butanoic acid, γ-oxo-α-(2-phenylethyl)-4'-propoxy-]",35,–,111,–,–,142
"CCCCCOc1ccc(-c2ccc(C(=O)CC(CCc3ccccc3)C(=O)O)cc2)cc1 (stereo not drawn) [Example 158, [1,1'-Biphenyl]-4-butanoic acid, γ-oxo-4'-(pentyloxy)-α-(2-phenylethyl)-]",32,–,37,–,–,> 500
